Consider eight compounds from paper PMC3704178 (ACS medicinal chemistry letters, 2013).

Series [1] deals with PrP^Sc level in RML prion-infected mouse neuroblastoma cells (ScN2a-cl3). The class given is cell-based.
Series [2] can be described thus: Microsomal stability, mouse microsomes.
Series [3] can be described thus: Microsomal stability, human microsomes.

Regarding `CC(=O)c1ccc(N2CCN(Cc3ccccc3)CC2)cc1` [Compound 1], the “Antiprion potency EC50 ± SEM” value in series [1] is reported as “micromolar range”.

For the compound `CC(=O)c1ccc(N2CCN(Cc3cccnc3)CC2)cc1` [Compound 7], the “Antiprion potency EC50 ± SEM” value in series [1] was “micromolar range”. Turning to `CC(=O)c1ccc(N2CCN(Cc3cccs3)CC2)cc1` [Compound 13], the “Antiprion potency EC50 ± SEM” value in series [1] is reported as “micromolar range”. On to `CC(=O)c1ccc(N2CCN(Cc3ccc(C)o3)CC2)cc1` [Compound 19], for which the “Antiprion potency EC50 ± SEM” value in series [1] was “micromolar range”. Turning to `c1cncc(CN2CCN(c3ccc(-c4nc5ccccc5o4)cc3)CC2)c1` [Compound 41], the “Fold more potent (EC50) than furanyl 42 and thiophenyl 43” value in series [1] was at least 13 fold. As to `c1cncc(CN2CCN(c3ccc(-c4nc5ccccc5s4)cc3)CC2)c1` [Compound 44], in series [2], the “Fold improvement of t1/2 in mouse microsomes compared to 41” value is on record as “approximately 2 fold”. As for `Fc1ccc(CN2CCN(c3ccc(-c4nc5ccccc5o4)cc3)CC2)cn1` [Compound 46], the “Fold less potent (EC50) than parent pyridine analog 41” value in series [1] came to 1.5 fold. For the compound `COc1ccc(CN2CCN(c3ccc(-c4nc5ccccc5o4)cc3)CC2)cn1` [Compound 47], the “Fold less potent (EC50) than parent pyridine analog 41” value in series [1] was determined as 4.5 fold. For the same compound, the “Fold improvement of t1/2 in mouse microsomes compared to 41” value in series [2] is “approximately 3 fold”. Besides, in series [3], the “Fold increase in stability in human microsomes compared to 41” value was “approximately 3 fold”.
